# Test results published in patent US20250057860A1, “READY-TO-DILUTE FORMULATION” (priority 2021, published 2025).
# Legend:
# [1] = Solubility of remdesivir in water in the presence of surfactants; format: physicochemical
# Method: The effect of various surfactants on the solubility of remdesivir in water was also tested.
# [2] = Initial screening: effect of excipients on remdesivir solubility; format: physicochemical
# [3] = cited from earlier work
substance,measurement,setting,value
remdesivir,Remdesivir Solubility,[1]; water with Kolliphor EL (Polyoxyl 35 Castor Oil; Cremophor) 0.10 % w/w,0.020 mg/mL
same,Remdesivir Solubility,[1]; water with Poloxamer P407 0.07 % w/w,0.006 mg/mL
same,Remdesivir Solubility,[1]; water with TWEEN 20 (Polysorbate 20) 0.16 % w/w,0.016 mg/mL
same,Remdesivir Solubility,[1]; water with TWEEN 80 (Polysorbate 80) 0.30 % w/w,0.033 mg/mL
same,Solubility,[2]; in Benzyl Alcohol,≥56 mg/mL
same,Solubility,[2]; in Ethanol,≥21 mg/mL
same,Solubility,[2]; in N-methyl pyrrolidone,> 100 mg/mL
same,Solubility,[2]; in N-methyl-2-pyrrolidone (NMP),≥112 mg/mL
same,Solubility,[2]; in NMP + Ethanol,≥226 mg/mL
same,Solubility,[2]; in PEG 300,≥39 mg/mL
same,Solubility,[2]; in PEG 400,≥16 mg/mL
same,Solubility,[2]; in PEG 400 + Glycerol (3:5),0.011 mg/mL
same,Solubility,[2]; in PEG 400 + Glycerol (3:10),0.0008 mg/mL
same,Solubility,[2]; in PEG 600,≥6.2 mg/mL
same,Solubility,[2]; in PEG 1000,≥6.3 mg/mL
same,Solubility,[2]; in Peppermint Oil,15.9 mg/mL
same,Solubility,[2]; in Plasdone (PVP) + PEG 300,≥66 mg/mL
same,Solubility,[2]; in Propylene Glycol,≥29 mg/mL
same,Solubility,[2]; in Soluplus + Ethanol + Water,≥34 mg/mL
same,Solubility,[2]; in Span 20,0.006 mg/mL
same,Solubility,[2]; in Span 80,0.3 mg/mL
same,Solubility,[2]; in low molecular weight polyethylene glycols (PEG 300 and 400) in the presence of low molecular weight PVP,over 50 mg/ml
same,solubility in water (in words),[3],insoluble
